Assay results taken from patent US9708334B2, “Substituted 2,4,5,6-tetrahydropyrrolo[3,4-c]pyrazole and 4,5,6,7-tetrahydro-2H-pyrazolo[4,3-c]pyridine compounds as GlyT1 inhibitors” (DART NEUROSCIENCE (CAYMAN) LTD., priority 2014, dated 2017).

Target: T1, GlyT1 (Homo sapiens, UniProt P48067)
T1 construct: expressed in transfected cells
T1 sequence (P48067 1-706): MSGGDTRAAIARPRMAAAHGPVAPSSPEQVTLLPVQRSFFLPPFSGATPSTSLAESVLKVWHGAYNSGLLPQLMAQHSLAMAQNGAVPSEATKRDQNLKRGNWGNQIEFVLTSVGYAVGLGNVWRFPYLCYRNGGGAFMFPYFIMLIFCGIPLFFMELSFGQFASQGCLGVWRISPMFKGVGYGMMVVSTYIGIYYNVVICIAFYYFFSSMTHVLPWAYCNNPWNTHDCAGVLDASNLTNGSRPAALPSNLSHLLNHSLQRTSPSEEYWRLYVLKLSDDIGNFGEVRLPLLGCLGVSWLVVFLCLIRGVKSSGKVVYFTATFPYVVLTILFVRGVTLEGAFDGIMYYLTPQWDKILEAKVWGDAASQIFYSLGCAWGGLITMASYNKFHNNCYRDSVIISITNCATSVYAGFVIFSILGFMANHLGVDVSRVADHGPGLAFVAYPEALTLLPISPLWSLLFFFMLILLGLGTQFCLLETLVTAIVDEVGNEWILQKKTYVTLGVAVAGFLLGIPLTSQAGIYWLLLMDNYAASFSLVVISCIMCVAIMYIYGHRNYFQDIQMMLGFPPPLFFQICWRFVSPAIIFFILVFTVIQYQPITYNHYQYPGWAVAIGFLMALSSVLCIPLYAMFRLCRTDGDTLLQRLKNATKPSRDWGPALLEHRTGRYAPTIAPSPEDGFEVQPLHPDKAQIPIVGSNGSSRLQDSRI
Experiment: Glycine Transporter 1 (GlyT1) uptake assay, scintillation proximity assay of [14C]-glycine uptake
Format: cell-based
Details: SPA, four parameter logistic fit, read-out: GlyT1 (pIC50) (converted)
Procedure, shortened: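 [14C]-glycine uptake read by scintillation proximity on a plate counter. IC50 from four-parameter logistic fit of dose-response data.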

IC50 [nM] | SMILES
100 to 1000 | [2H]C1(c2ccc(C#N)cc2C(=O)N2CCc3nn(-c4ccccc4)cc3C2)CCCC1 [Example 173, 4-[(1-^2H)Cyclopentyl]-3-{2-phenyl-2H 4H 5H 6H 7H-pyrazolo[4,3-c]pyridine-5-carbonyl}benzonitrile]
< 100 | COc1c(C#N)ccc(O[C@@H](C)C(F)(F)F)c1C(=O)N1Cc2cn(-c3ccc(F)c(C)n3)nc2C1 [Example 296, 3-[2-(5-Fluoro-6-methylpyridin-2-yl)-2H 4H 5H 6H-pyrrolo[3,4-c]pyrazole-5-carbonyl]-2-methoxy-4-{[(2 S)-1 1 1-trifluoropropan-2-yl]oxy}benzonitrile]
< 100 | CCc1cc(-n2cc3c(n2)CN(C(=O)c2cc(S(C)(=O)=O)ccc2-c2cccc(F)c2)C3)ccn1 [Example 143, 2-Ethyl-4-{5-[2-(3-fluorophenyl)-5-methanesulfonylbenzoyl]-2H 4H 5H 6H-pyrrolo[3,4-c]pyrazol-2-yl}pyridine]
< 100 | CCc1cc(-n2cc3c(n2)CN(C(=O)c2cc(S(=O)(=O)CC)ccc2O[C@@H](C)C(F)(F)F)C3)ccn1 [Example 134, 4-{5-[5-(Ethanesulfonyl)-2-{[(2S)-1 1 1-trifluoropropan-2-yl]oxy}benzoyl]-2H 4H 5H 6H-pyrrolo[3,4-c]pyrazol-2-yl}-2-ethylpyridine]
< 100 | C[C@H](Oc1ccc(C#N)c(Cl)c1C(=O)N1Cc2cn(-c3ccccc3)nc2C1)C(F)(F)F [Example 327, 2-Chloro-3-{2-phenyl-2H 4H 5H 6H-pyrrolo[3,4-c]pyrazole-5-carbonyl}-4-{[(2S)-1 1 1-trifluoropropan-2-yl]oxy}benzonitrile]
< 100 | CC(C)COc1ccc(S(C)(=O)=O)cc1C(=O)N1Cc2cn(-c3cc(Cl)ccc3F)nc2C1 [Example 68, 2-(5-Chloro-2-fluorophenyl)-5-[5-methanesulfonyl-2-(2-methylpropoxy)benzoyl]-2H 4H 5H 6H-pyrrolo[3,4-c]pyrazole]
> 10000 | Cn1ncc2c1CCN(C(=O)c1cc(S(C)(=O)=O)ccc1OCC1CC1)C2 [Example 158, 5-[2-(Cyclopropylmethoxy)-5-methanesulfonylbenzoyl]-1-methyl-1H 4H 5H 6H 7H-pyrazolo[4,3-c]pyridine]
100 to 1000 | Cc1cc(-n2cc3c(n2)CN(C(=O)c2cc(C#N)ccc2-c2cc(F)cc(F)c2)C3)ccn1 [Example 562, 4-(3 5-Difluorophenyl)-3-[2-(2-methylpyridin-4-yl)-2H 4H 5H 6H-pyrrolo[3,4-c]pyrazole-5-carbonyl]benzonitrile]
100 to 1000 | CC(C)Cn1cc2c(n1)CN(C(=O)c1cc(C#N)ccc1O[C@@H](C)C(F)(F)F)C2 [Example 386, 3-[2-(2-Methylpropyl)-2H 4H 5H 6H-pyrrolo[3,4-c]pyrazole-5-carbonyl]-4-{[(2S)-1 1 1-trifluoropropan-2-yl]oxy}benzonitrile]
< 100 | CS(=O)(=O)c1ccc(-c2cccc(F)c2)c(C(=O)N2Cc3cn(-c4cccnc4)nc3C2)c1 [Example 141, 3-{5-[2-(3-Fluorophenyl)-5-methanesulfonylbenzoyl]-2H 4H 5H 6H-pyrrolo[3,4-c]pyrazol-2-yl}pyridine]
< 100 | Cc1ccnc(-n2cc3c(n2)CN(C(=O)c2cc(S(C)(=O)=O)ccc2O[C@@H](C)C(F)(F)F)C3)c1 [Example 357, 2-[5-(5-Methanesulfonyl-2-{[(2S)-1 1 1-trifluoropropan-2-yl]oxy}benzoyl)-2H 4H 5H 6H-pyrrolo[3,4-c]pyrazol-2-yl]-4-methylpyridine]
< 100 | CS(=O)(=O)c1ccc(-c2ccccc2F)c(C(=O)N2Cc3cn(-c4ccccc4F)nc3C2)c1 [Example 559, 2-(2-Fluorophenyl)-5-[2-(2-fluorophenyl)-5-methanesulfonylbenzoyl]-2H 4H 5H 6H-pyrrolo[3,4-c]pyrazole]
< 100 | CS(=O)(=O)c1ccc(-c2cccc(F)c2)c(C(=O)N2Cc3cn(C4CCOCC4)nc3C2)c1 [Example 448, 5-[2-(3-Fluorophenyl)-5-methanesulfonylbenzoyl]-2-(oxan-4-yl)-2H 4H 5H 6H-pyrrolo[3,4-c]pyrazole]
< 100 | CS(=O)(=O)c1ccc(-c2cccc(F)c2)c(C(=O)N2Cc3cn(-c4ccc(F)cn4)nc3C2)c1 [Example 107, 5-Fluoro-2-{5-[2-(3-fluorophenyl)-5-methanesulfonylbenzoyl]-2H 4H 5H 6H-pyrrolo[3,4-c]pyrazol-2-yl}pyridine]
< 100 | CC(Oc1ccc(S(C)(=O)=O)cc1C(=O)N1Cc2cn(-c3ccc(F)cc3)nc2C1)C(F)(F)F (centres unmarked) [Example 303, 2-(4-Fluorophenyl)-5-{5-methanesulfonyl-2-[(1 1 1-trifluoropropan-2-yl)oxy]benzoyl}-2H 4H 5H 6H-pyrrolo[3,4-c]pyrazole]
1000 to 10000 | COc1c(C(N)=O)ccc(OC(C)C(F)(F)F)c1C(=O)N1CCc2nn(-c3ccc(F)cc3)cc2C1 (centres unmarked) [Example 483, 3-[2-(4-Fluorophenyl)-2H 4H 5H 6H 7H-pyrazolo[4,3-c]pyridine-5-carbonyl]-2-methoxy-4-[(1 1 1-trifluoropropan-2-yl)oxy]benzamide]
< 100 | COc1cc(-n2cc3c(n2)CN(C(=O)c2cc(C#N)ccc2O[C@@H](C)C(F)(F)F)C3)ccn1 [Example 364, 3-[2-(2-Methoxypyridin-4-yl)-2H 4H 5H 6H-pyrrolo[3,4-c]pyrazole-5-carbonyl]-4-{[(2S)-1 1 1-trifluoropropan-2-yl]oxy}benzonitrile]
< 100 | CC(C)Oc1ccc(S(C)(=O)=O)cc1C(=O)N1Cc2cn(C3CCCCC3)nc2C1 [Example 403, 2-Cyclohexyl-5-[5-methanesulfonyl-2-(propan-2-yloxy)benzoyl]-2H 4H 5H 6H-pyrrolo[3,4-c]pyrazole]
< 100 | CCc1cc(-n2cc3c(n2)CN(C(=O)c2cc(S(=O)(=O)CC)ccc2N2CCC(F)(F)CC2)C3)ccn1 [Example 132, 4-{5-[2-(4 4-Difluoropiperidin-1-yl)-5-(ethanesulfonyl)benzoyl]-2H 4H 5H 6H-pyrrolo[3,4-c]pyrazol-2-yl}-2-ethylpyridine]
< 100 | COc1cccc(-n2cc3c(n2)CN(C(=O)c2c(O[C@@H](C)C(F)(F)F)ccc(C#N)c2Cl)C3)n1 [Example 276, 2-Chloro-3-[2-(6-methoxypyridin-2-yl)-2H 4H 5H 6H-pyrrolo[3,4-c]pyrazole-5-carbonyl]-4-{[(2S)-1 1 1-trifluoropropan-2-yl]oxy}benzonitrile]
100 to 1000 | Cc1cccc(-n2cc3c(n2)CN(C(=O)c2cc(C#N)ccc2O[C@@H](C)C(F)(F)F)C3)c1F [Example 395]
1000 to 10000 | Cc1cc(-n2cc3c(n2)CN(C(=O)c2cc(C#N)ccc2-c2cccc(C(F)(F)F)c2)C3)ccn1 [Example 565, 3-[2-(2-Methylpyridin-4-yl)-2H 4H 5H 6H-pyrrolo[3,4-c]pyrazole-5-carbonyl]-4-[3-(trifluoromethyl)phenyl]benzonitrile]
1000 to 10000 | C[C@H](Oc1ccc(C#N)cc1C(=O)N1Cc2cnn(C3CCCC3)c2C1)C(F)(F)F [Example 388, 3-{1-Cyclopentyl-1H 4H 5H 6H-pyrrolo[3,4-c]pyrazole-5-carbonyl}-4-{[(2 S)-1 1 1-trifluoropropan-2-yl]oxy}benzonitrile]
1000 to 10000 | CC(C)Oc1ccc(S(=O)(=O)C(C)C)cc1C(=O)N1Cc2cn(-c3cccc(C(F)(F)F)c3F)nc2C1 [Example 93, 2-[2-Fluoro-3-(trifluoromethyl)phenyl]-5-[2-(propan-2-yloxy)-5-(propane-2-sulfonyl)benzoyl]-2H 4H 5H 6H-pyrrolo[3,4-c]pyrazole]
100 to 1000 | CCOc1cc(-n2cc3c(n2)CN(C(=O)c2cc(C#N)ccc2OC(C)C)C3)ccn1 [Example 370, 3-[2-(2-Ethoxypyridin-4-yl)-2H 4H 5H 6H-pyrrolo[3,4-c]pyrazole-5-carbonyl]-4-(propan-2-yloxy)benzonitrile]
< 100 | COc1c(C#N)ccc(OCC(F)(F)F)c1C(=O)N1Cc2cn(-c3ccnc(C)c3)nc2C1 [Example 308, 2-Methoxy-3-[2-(2-methylpyridin-4-yl)-2H 4H 5H 6H-pyrrolo[3,4-c]pyrazole-5-carbonyl]-4-(2 2 2-trifluoroethoxy)benzonitrile]
100 to 1000 | COc1c(C#N)ccc(C2(F)CCOCC2)c1C(=O)N1CCc2nn(-c3ccc(F)cn3)cc2C1 [Example 14, 4-(4-Fluorooxan-4-yl)-3-[2-(5-fluoropyridin-2-yl)-2H 4H 5H 6H 7H-pyrazolo[4,3-c]pyridine-5-carbonyl]-2-methoxybenzonitrile]
100 to 1000 | COc1c(C#N)ccc(C2(F)CCC2)c1C(=O)N1CCc2nn(-c3ccc(F)cn3)cc2C1 [Example 212, 4-(1-Fluorocyclobutyl)-3-[2-(5-fluoropyridin-2-yl)-2H 4H 5H 6H 7H-pyrazolo[4,3-c]pyridine-5-carbonyl]-2-methoxybenzonitrile]
100 to 1000 | CC(C)Oc1cc(-n2cc3c(n2)CN(C(=O)c2cc(C#N)ccc2OC(C)C(F)(F)F)C3)ccn1 (stereo in doubt) [Example 372, 3-{2-[2-(Propan-2-yloxy)pyridin-4-yl]-2H 4H 5H 6H-pyrrolo[3,4-c]pyrazole-5-carbonyl}-4-{[(2S)-1 1 1-trifluoropropan-2-yl]oxy}benzonitrile]
